Measurements taken from ChEMBL document CHEMBL5096212, “Development of a water-soluble ryanodine receptor 1 inhibitor” (Bioorg Med Chem, 2022).
pEC50: −log10 of the molar value. Values after ≈ are worked out from the molar mass of the structure shown.

Experiments:
[1] = Solubility of the compound in 30% EtOH/PBS measured after 48 hrs by HPLC analysis; format: physicochemical
[2] = Inhibition of RyR1 R2163C mutant (unknown origin) expressed in HEK293 cells measured every 10s for 300s by R-CEPIA1er based fluorescence analysis; format: cell-based, Homo sapiens
[3] = Solubility of the compound in saline measured after 48 hrs by HPLC analysis; format: physicochemical; settings: buffer

solubility at 48 h [1] [µg/mL] | pEC50 [2] | solubility [3] [µg/mL] | Compound
4.7 (≈ 13.6 µM) | 7.92 |  | CCCCCCCCn1cc(C(=O)O)c(=O)c2cc3c(cc21)OCO3
 |  | 27 | CCCCCCCCn1cc(C(=O)[O-])c(=O)c2cnc(OC)cc21.[Na+]
 |  | 3.9 | CCCCCCCn1cc(C(=O)[O-])c(=O)c2cc3c(cc21)OCO3.[Na+]
414 (≈ 1250 µM) | 7.17 |  | CCCCCCCCn1cc(C(=O)O)c(=O)c2cnc(OC)cc21
54 (≈ 163 µM) | 7.96 |  | CCCCCCCn1cc(C(=O)O)c(=O)c2cc3c(cc21)OCO3
 | 5.77 |  | CCCCCCCCn1cc(C(=O)O)c(=O)c2c(OC)nccc21
 | 6.28 |  | CCCCCCCn1cc(C(=O)O)c(=O)c2cnc(OC)cc21
 |  | 0.84 | CCCCCCCCn1cc(C(=O)[O-])c(=O)c2cc3c(cc21)OCO3.[Na+]
 | 7.15 |  | CCCCCCn1cc(C(=O)O)c(=O)c2cc3c(cc21)OCO3
